The values that follow come from patent publication US20180049457A1, “ENZYMATIC SYNTHESIS OF SOLUBLE GLUCAN FIBER” (E I DU PONT DE NEMOURS AND COMPANY, priority 2014, published 2018).

The test system of one assay is intestinal microbiota. Briefly: In vitro gas production by intestinal microbiota (pre-conditioned faecal slurry). Format: cell-based. On the procedure:
To measure the formation of gas by the intestinal microbiota, a pre-conditioned faecal slurry was incubated with test prebiotic (oligosaccharide or polysaccharide soluble fibers) and the volume of gas formed was measured. Fresh faecal material was pre-conditioned by dilution with 3 parts (w/v) of anaerobic simulator medium, stirring for 1 h under anaerobic conditions and filtering through 0.3-mm metal mesh after which it was incubated anaerobically for 24 h at 37° C.
The simulator medium used was composed as described by G. T. Macfarlane et al. (Microb. Ecol. 35(2):180-7 (1998)) containing the following constituents (g/L) in distilled water: starch (BDH Ltd.), 5.0; peptone, 0.05; tryptone, 5.0; yeast extract, 5.0; NaCl, 4.5; KCl, 4.5; mucin (porcine gastric type III), 4.0; casein (BDH Ltd.), 3.0; pectin (citrus), 2.0; xylan (oatspelt), 2.0; arabinogalactan (larch wood), 2.0; NaHCO3, 1.5; MgSO4, 1.25; guar gum, 1.0; inulin, 1.0; cysteine, 0.8; KH2PO4, 0.5; K2HPO4, 0.5; bile salts No. 3, 0.4; CaCl2×6 H2O, 0.15; FeSO4×7 H2O, 0.005; hemin, 0.05; and Tween 80, 1.0; cysteine hydrochloride, 6.3; Na2S×9 H2O, and 0.1% resazurin as an indication of sustained anaerobic conditions. The simulation medium was filtered through 0.3 mm metal mesh and divided into sealed serum bottles.
Test prebiotics were added from 10% (w/w) stock solutions to a final concentration of 1%. The incubation was performed at 37° C. while maintaining anaerobic conditions. Gas production due to microbial activity was measured manually after 24 h incubation using a scaled, airtight glass syringe, thereby also releasing the overpressure from the simulation unit.
Solutions of chromatographically-purified soluble oligosaccharide/polysaccharide fibers were dried to a constant weight by lyophilization. The individual soluble oligosaccharide/polysaccharide soluble fiber samples were subsequently evaluated as carbon source for in vitro gas production using the method described in the General Methods. PROMITOR® 85 (soluble corn fiber, Tate & Lyle), NUTRIOSE® FM06 (soluble corn fiber or dextrin, Roquette), FIBERSOL-2® 600F (digestion-resistant maltodextrin, Archer Daniels Midland Company & Matsutani Chemical), ORAFTI® GR (inulin from Beneo, Mannheim, Germany), LITESSE® Ultra™ (polydextrose, Danisco), GOS (galactooligosaccharide, Clasado Inc., Reading, UK), ORAFTI® P95 (oligofructose (fructo-oligosaccharide, FOS, Beneo), LACTITOL MC (4-O-β-D-Galactopyranosyl-D-glucitol monohydrate, Danisco) and glucose were included as control carbon sources. Table 61 lists the In vitro gas production by intestinal microbiota at 3 h and 24 h. Table 62 lists the in vitro gas production by intestinal microbiota from controls and the sequences identified from the GTF0459 homolog sequence search. Table 63 lists the in vitro gas production by intestinal microbiota from controls and truncations of homolog sequences identified from the GTF0459 homolog sequence search.

For another assay, the system named is human faecal microbiota. Briefly: Colonic fermentation modeling (semi-continuous colon simulator) and measurement of fatty acids. Format: cell-based. The following applies: test component 1% in ileal fluid, 48 h. The source says: Colonic fermentation was modeled using a semi-continuous colon simulator as described by Makivuokko et al. (Nutri. Cancer (2005) 52(1):94-104); in short; a colon simulator consists of four glass vessels which contain a simulated ileal fluid as described by Macfarlane et al. (Microb. Ecol. (1998) 35(2):180-187). The simulator is inoculated with a fresh human faecal microbiota and fed every third hour with new ileal liquid and part of the contents is transferred from one vessel to the next. The ileal fluid contains one of the described test components at a concentration of 1%. The simulation lasts for 48 h after which the content of the four vessels is harvested for further analysis. The further analysis involves the determination of microbial metabolites such as short chain fatty acids (SCFA); also referred to as volatile fatty acids (VFA) and branched chain fatty acids (BCFA). Analysis was performed as described by Holben et al. (Microb. Ecol. (2002) 44:175-185); in short; simulator content was centrifuged and the supernatant was used for SCFA and BCFA analysis. Pivalic acid (internal standard) and water were mixed with the supernatant and centrifuged. After centrifugation, oxalic acid solution was added to the supernatant and then the mixture was incubated at 4° C., and then centrifuged again. The resulting supernatant was analyzed by gas chromatography using a flame ionization detector and helium as the carrier gas. Comparative data generated from samples of LITESSE® ULTRA™ (polydextrose, Danisco), ORAFTI® P95 (oligofructose; fructo-oligosaccharide, “FOS”, Beneo), lactitol (Lactitol MC (4-O-β-D-galactopyranosyl-D-glucitol monohydrate, Danisco), and a negative control is also provided. The concentration of acetic, propionic, butyric, isobutyric, valeric, isovaleric, 2-methylbutyric, and lactic acid was determined (Table 64).

Consider `O.OC[C@@H](O)[C@@H](O[C@@H]1O[C@H](CO)[C@H](O)[C@H](O)[C@H]1O)[C@H](O)[C@@H](O)CO` [LACTITOL ® MC], for which the “mL gas formation in 3 h” value in the assay on intestinal microbiota (Table 61) is 2.0 mL; in the assay with intestinal microbiota (Table 62) it was 2.0 mL; in the assay on intestinal microbiota (Table 63), 3.0 mL. The “mL gas formation in 24 h” value with intestinal microbiota (24 h, Table 61) was 4.8 mL. For the same compound, the entries for the “mL gas formation in 24.5 h” value in the assay with intestinal microbiota (Table 62) and in the assay with intestinal microbiota (Table 63) were 1.5 mL and 2.0 mL, respectively.
For `O.OC[C@@H](O)[C@@H](O[C@@H]1O[C@H](CO)[C@H](O)[C@H](O)[C@H]1O)[C@H](O)[C@@H](O)CO` [LACTITOL MC, 4-O-β-D-Galactopyranosyl-D-glucitol monohydrate], in the assay with human faecal microbiota, the Acetic is 318 mM, the “Branched Chain Fatty Acids (BCFA)” value is reported as 7.5 mM, the Butyric was 94 mM and the Lactic is given as 52 mM. Besides, in the assay with human faecal microbiota, the Propionic is recorded as 42 mM and the “Short Chain Fatty Acids (SCFA)” value is 506 mM.
